Measurements reported in ChEMBL document CHEMBL1137369, “New orally active derivatives of artemisinin with high efficacy against multidrug-resistant malaria in mice” (J Med Chem, 2006).

Experiments:
[1] = Protection of Swiss mice (Mus musculus) infected with Plasmodium yoelii nigeriensis at 48 mg/kg, perorally for 4 days; assay type: functional; conditions: route oral
[2] = tested on: Plasmodium yoelii nigeriensis; experiment: Antimalarial activity against multidrug-resistant Plasmodium yoelii nigeriensis infected Swiss mice (Mus musculus) at 12 mg/kg peroral dose over 4 days; assay type: functional; conditions: route oral
[3] = tested on: Plasmodium yoelii nigeriensis; experiment: Antimalarial activity against multidrug-resistant Plasmodium yoelii nigeriensis infected Swiss mice (Mus musculus) at 48 mg/kg peroral dose over 4 days; assay type: functional; conditions: route oral
[4] = Lipophilicity, Log P of the compound; assay type: physicochemical; conditions: octanol/water
[5] = tested on: Plasmodium yoelii nigeriensis; experiment: Antimalarial activity as cures against multidrug-resistant Plasmodium yoelii nigeriensis infected Swiss mice (Mus musculus) at 48 mg/kg peroral dose over 4 days; assay type: functional; conditions: route oral
[6] = tested on: Plasmodium yoelii nigeriensis; experiment: Antimalarial activity against multidrug-resistant Plasmodium yoelii nigeriensis infected Swiss mice (Mus musculus) at 6 mg/kg peroral dose over 4 days; assay type: functional; conditions: route oral

Row | Compound | Activity [1] [%] | Activity [2] [%] | Activity [3] [%] | logP [4] | Activity [5] [%] | Activity [6] [%]
1 | C[C@H]1[C@@H](OCCOc2ccc(-c3ccccc3)cc2)O[C@@H]2C[C@@]3(C)CC[C@H]4[C@H](C)CC[C@@H]1[C@@]24OO3 | 100 | 100 | 100 | 6.85 | 100 | –
2 | C[C@H]1[C@H](OCCOc2ccc(-c3ccccc3)cc2)O[C@@H]2C[C@@]3(C)CC[C@H]4[C@H](C)CC[C@@H]1[C@@]24OO3 | – | 100 | 100 | 6.85 | 100 | 44.33
3 | C[C@@H]1CC[C@H]2[C@@H](C)C(OCC34CC5CC(CC(C5)C3)C4)O[C@@H]3O[C@@]4(C)CC[C@@H]1[C@]32OO4 (stereo not given in full) | 100 | 100 | 100 | 6.02 | 100 | –
4 | C[C@H]1[C@@H](OCC2c3ccccc3-c3ccccc32)O[C@@H]2C[C@@]3(C)CC[C@H]4[C@H](C)CC[C@@H]1[C@@]24OO3 | – | 100 | 100 | 6.75 | 100 | 92.95
5 | C[C@H]1[C@@H](OCCC23CC4CC(CC(C4)C2)C3)O[C@@H]2O[C@@]3(C)CC[C@H]4[C@H](C)CC[C@@H]1[C@@]24OO3 | 60 | – | 100 | 6.29 | 100 | –
6 | C[C@H]1[C@H](OCC2c3ccccc3-c3ccccc32)O[C@@H]2C[C@@]3(C)CC[C@H]4[C@H](C)CC[C@@H]1[C@@]24OO3 | – | 100 | 100 | 6.75 | 100 | –
7 | C[C@H]1[C@H](OCc2ccc(-c3ccccc3)cc2)O[C@@H]2O[C@@]3(C)CC[C@H]4[C@H](C)CC[C@@H]1[C@@]24OO3 | – | 100 | 100 | 6.91 | 100 | 86.33
8 | C[C@H]1[C@@H](OCCOc2ccccc2-c2ccccc2)O[C@@H]2C[C@@]3(C)CC[C@H]4[C@H](C)CC[C@@H]1[C@@]24OO3 | – | – | 100 | 6.85 | 100 | –
9 | C[C@H]1[C@@H](OCc2ccccc2-c2ccccc2)O[C@@H]2O[C@@]3(C)CC[C@H]4[C@H](C)CC[C@@H]1[C@@]24OO3 | 100 | 100 | 100 | 6.91 | 100 | –
10 | C[C@H]1[C@@H](OCCc2ccc(-c3ccccc3)cc2)O[C@@H]2O[C@@]3(C)CC[C@H]4[C@H](C)CC[C@@H]1[C@@]24OO3 | 100 | 100 | 100 | 7.19 | 100 | –
11 | C[C@H]1[C@H](OCCC2C3CC4CC(C3)CC2C4)O[C@@H]2O[C@@]3(C)CC[C@H]4[C@H](C)CC[C@@H]1[C@@]24OO3 (stereo not given in full) | – | 100 | 100 | 6.15 | 100 | –
12 | C[C@@H]1CC[C@H]2[C@@H](C)C(OCCC3c4ccccc4-c4ccccc43)O[C@@H]3C[C@@]4(C)CC[C@@H]1[C@]32OO4 (stereo not given in full) | 100 | 100 | 100 | 7.1 | 100 | –
13 | C[C@H]1[C@@H](OCCC2C3CC4CC(C3)CC2C4)O[C@@H]2O[C@@]3(C)CC[C@H]4[C@H](C)CC[C@@H]1[C@@]24OO3 (stereo not given in full) | 100 | – | 100 | 6.15 | 100 | –
14 | C[C@H]1[C@H](OCCC23CC4CC(CC(C4)C2)C3)O[C@@H]2O[C@@]3(C)CC[C@H]4[C@H](C)CC[C@@H]1[C@@]24OO3 | – | 97.43 | 100 | 6.29 | 100 | 61.25
15 | C[C@@H]1CC[C@H]2[C@@H](C)C(OC3C4CC5CC(C4)CC3C5)O[C@@H]3O[C@@]4(C)CC[C@@H]1[C@]32OO4 (stereo not given in full) | 100 | 100 | 100 | 5.51 | 100 | –
16 | C[C@H]1[C@H](OCCOc2ccccc2-c2ccccc2)O[C@@H]2C[C@@]3(C)CC[C@H]4[C@H](C)CC[C@@H]1[C@@]24OO3 | – | 100 | 100 | 6.85 | 100 | 64.44
17 | C[C@H]1[C@@H](OCc2ccc(-c3ccccc3)cc2)O[C@@H]2O[C@@]3(C)CC[C@H]4[C@H](C)CC[C@@H]1[C@@]24OO3 | 100 | 100 | 100 | 6.91 | 100 | –
18 | CCO[C@@H]1O[C@@H]2O[C@]3(C)CC[C@H]4[C@H](C)CC[C@@H]([C@H]1C)[C@@]24OO3 [ALPHA-ARTEETHER] | – | – | 100 | 3.84 | 100 | –
19 | CCO[C@H]1O[C@@H]2O[C@@]3(C)CC[C@H]4[C@H](C)CC[C@@H]([C@H]1C)[C@@]24OO3 [ARTEMOTIL] | – | – | 100 | 3.84 | 100 | –
